Activity calls are given as the source filed them. The rule behind the calls is not given here.
Biological target: T1, Acetylcholinesterase (Rattus norvegicus, UniProt P37136)
T1 sequence (P37136 whole entry): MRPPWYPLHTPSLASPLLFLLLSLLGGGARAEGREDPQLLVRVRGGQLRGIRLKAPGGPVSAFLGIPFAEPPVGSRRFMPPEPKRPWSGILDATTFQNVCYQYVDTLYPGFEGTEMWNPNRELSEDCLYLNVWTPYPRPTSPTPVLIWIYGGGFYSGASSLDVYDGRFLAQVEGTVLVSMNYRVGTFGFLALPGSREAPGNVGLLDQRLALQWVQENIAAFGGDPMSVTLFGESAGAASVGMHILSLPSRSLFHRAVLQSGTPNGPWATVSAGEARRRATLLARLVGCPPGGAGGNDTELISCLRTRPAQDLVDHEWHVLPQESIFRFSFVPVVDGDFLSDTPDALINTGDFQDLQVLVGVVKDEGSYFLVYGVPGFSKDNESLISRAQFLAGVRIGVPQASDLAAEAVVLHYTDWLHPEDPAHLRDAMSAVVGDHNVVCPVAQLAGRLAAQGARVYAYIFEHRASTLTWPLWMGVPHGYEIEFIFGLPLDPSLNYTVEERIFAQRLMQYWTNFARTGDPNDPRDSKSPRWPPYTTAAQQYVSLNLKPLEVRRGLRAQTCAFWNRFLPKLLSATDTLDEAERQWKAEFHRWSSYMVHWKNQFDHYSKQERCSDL
Assay: Inhibition of AChE activity in rat brain homogenate using acetylthiocholine as substrate by Ellman's method
Type: tissue-based
Conditions: not given

SMILES | IC50 [nM]
Cc1ccc(N2O[C@@H]3C(=O)N(c4ccc(C(=O)O)cc4)C(=O)[C@@H]3[C@@H]2c2ccccc2O)cc1 | 23.2
COc1ccc([C@H]2[C@@H]3C(=O)N(c4ccc(C(=O)O)cc4)C(=O)[C@@H]3ON2c2ccccc2)cc1 | 19.1
Cc1ccc(N2O[C@H]3C(=O)N(c4ccc(C(=O)O)cc4)C(=O)[C@H]3[C@@H]2c2ccc(Cl)cc2)cc1 | 20.4
Cc1ccc(N2O[C@H]3C(=O)N(c4ccc(C(=O)O)cc4)C(=O)[C@H]3[C@@H]2c2ccc([N+](=O)[O-])cc2)cc1 | 24.1
O=C(O)c1ccc(N2C(=O)[C@H]3[C@H](ON(c4ccccc4)[C@H]3c3ccccc3Cl)C2=O)cc1 (relative stereo) | 21.8
O=C(O)c1ccc(N2C(=O)[C@H]3[C@H](ON(c4ccccc4)[C@H]3c3ccccc3)C2=O)cc1 (relative stereo) | 23.9
O=C(O)c1ccc(N2C(=O)[C@H]3[C@H](ON(c4ccccc4)[C@H]3c3ccccc3O)C2=O)cc1 (relative stereo) | 23.9
O=C(O)c1ccc(N2C(=O)[C@H]3[C@H](ON(c4ccccc4)[C@H]3c3ccc(O)cc3)C2=O)cc1 (relative stereo) | 22.5
O=C(O)c1ccc(N2C(=O)[C@H]3[C@H](ON(c4ccccc4)[C@H]3c3cccc(Cl)c3)C2=O)cc1 (relative stereo) | 20.1
O=C(O)c1ccc(N2C(=O)[C@H]3[C@H](ON(c4ccccc4)[C@H]3c3ccc(Cl)cc3)C2=O)cc1 (relative stereo) | 19.7
COc1ccccc1[C@H]1[C@H]2C(=O)N(c3ccc(C(=O)O)cc3)C(=O)[C@H]2ON1c1ccccc1 (relative stereo) | 19.2
COc1cccc([C@H]2[C@H]3C(=O)N(c4ccc(C(=O)O)cc4)C(=O)[C@H]3ON2c2ccccc2)c1 (relative stereo) | 19.1
COc1ccc([C@H]2[C@H]3C(=O)N(c4ccc(C(=O)O)cc4)C(=O)[C@H]3ON2c2ccccc2)cc1 (relative stereo) | 18.8
O=C(O)c1ccc(N2C(=O)[C@H]3[C@H](ON(c4ccccc4)[C@H]3c3ccccc3[N+](=O)[O-])C2=O)cc1 (relative stereo) | 26.1
O=C(O)c1ccc(N2C(=O)[C@H]3[C@H](ON(c4ccccc4)[C@H]3c3ccc([N+](=O)[O-])cc3)C2=O)cc1 (relative stereo) | 25.8
Cc1ccc(N2O[C@@H]3C(=O)N(c4ccc(C(=O)O)cc4)C(=O)[C@@H]3[C@@H]2c2ccccc2)cc1 (relative stereo) | 22.8
Cc1ccc(N2O[C@@H]3C(=O)N(c4ccc(C(=O)O)cc4)C(=O)[C@@H]3[C@@H]2c2ccc(O)cc2)cc1 (relative stereo) | 21.9
Cc1ccc(N2O[C@@H]3C(=O)N(c4ccc(C(=O)O)cc4)C(=O)[C@@H]3[C@@H]2c2ccccc2Cl)cc1 (relative stereo) | 21.3
Cc1ccc(N2O[C@@H]3C(=O)N(c4ccc(C(=O)O)cc4)C(=O)[C@@H]3[C@@H]2c2cccc(Cl)c2)cc1 (relative stereo) | 22.2
Cc1ccc(N2O[C@@H]3C(=O)N(c4ccc(C(=O)O)cc4)C(=O)[C@@H]3[C@@H]2c2ccc(Cl)cc2)cc1 (relative stereo) | 19.2
COc1ccccc1[C@H]1[C@H]2C(=O)N(c3ccc(C(=O)O)cc3)C(=O)[C@H]2ON1c1ccc(C)cc1 (relative stereo) | 19.1
COc1cccc([C@H]2[C@H]3C(=O)N(c4ccc(C(=O)O)cc4)C(=O)[C@H]3ON2c2ccc(C)cc2)c1 (relative stereo) | 18.8

SMILES | IC50 [nM]
COc1ccc([C@H]2[C@H]3C(=O)N(c4ccc(C(=O)O)cc4)C(=O)[C@H]3ON2c2ccc(C)cc2)cc1 (relative stereo) | 17.5
Cc1ccc(N2O[C@@H]3C(=O)N(c4ccc(C(=O)O)cc4)C(=O)[C@@H]3[C@@H]2c2ccccc2[N+](=O)[O-])cc1 (relative stereo) | 24.3
Cc1ccc(N2O[C@@H]3C(=O)N(c4ccc(C(=O)O)cc4)C(=O)[C@@H]3[C@@H]2c2ccc([N+](=O)[O-])cc2)cc1 (relative stereo) | 23.4
O=C(O)c1ccc(N2C(=O)[C@@H]3[C@@H](ON(c4ccccc4)[C@H]3c3ccccc3)C2=O)cc1 (relative stereo) | 24.4
O=C(O)c1ccc(N2C(=O)[C@@H]3[C@@H](ON(c4ccccc4)[C@H]3c3ccccc3O)C2=O)cc1 (relative stereo) | 24.8
O=C(O)c1ccc(N2C(=O)[C@@H]3[C@@H](ON(c4ccccc4)[C@H]3c3ccc(O)cc3)C2=O)cc1 (relative stereo) | 22.7
O=C(O)c1ccc(N2C(=O)[C@@H]3[C@@H](ON(c4ccccc4)[C@H]3c3ccccc3Cl)C2=O)cc1 (relative stereo) | 22.4
O=C(O)c1ccc(N2C(=O)[C@@H]3[C@@H](ON(c4ccccc4)[C@H]3c3cccc(Cl)c3)C2=O)cc1 (relative stereo) | 21.8
O=C(O)c1ccc(N2C(=O)[C@@H]3[C@@H](ON(c4ccccc4)[C@H]3c3ccc(Cl)cc3)C2=O)cc1 (relative stereo) | 20.9
COc1ccccc1[C@H]1[C@@H]2C(=O)N(c3ccc(C(=O)O)cc3)C(=O)[C@@H]2ON1c1ccccc1 (relative stereo) | 20.6
COc1cccc([C@H]2[C@@H]3C(=O)N(c4ccc(C(=O)O)cc4)C(=O)[C@@H]3ON2c2ccccc2)c1 (relative stereo) | 20.5
O=C(O)c1ccc(N2C(=O)[C@@H]3[C@@H](ON(c4ccccc4)[C@H]3c3ccccc3[N+](=O)[O-])C2=O)cc1 (relative stereo) | 26.9
O=C(O)c1ccc(N2C(=O)[C@@H]3[C@@H](ON(c4ccccc4)[C@H]3c3ccc([N+](=O)[O-])cc3)C2=O)cc1 (relative stereo) | 26.4
Cc1ccc(N2O[C@H]3C(=O)N(c4ccc(C(=O)O)cc4)C(=O)[C@H]3[C@@H]2c2ccccc2)cc1 (relative stereo) | 22.4
Cc1ccc(N2O[C@H]3C(=O)N(c4ccc(C(=O)O)cc4)C(=O)[C@H]3[C@@H]2c2ccccc2O)cc1 (relative stereo) | 24.1
Cc1ccc(N2O[C@H]3C(=O)N(c4ccc(C(=O)O)cc4)C(=O)[C@H]3[C@@H]2c2ccc(O)cc2)cc1 (relative stereo) | 22.5
Cc1ccc(N2O[C@H]3C(=O)N(c4ccc(C(=O)O)cc4)C(=O)[C@H]3[C@@H]2c2ccccc2Cl)cc1 (relative stereo) | 22.1
Cc1ccc(N2O[C@H]3C(=O)N(c4ccc(C(=O)O)cc4)C(=O)[C@H]3[C@@H]2c2cccc(Cl)c2)cc1 (relative stereo) | 23.8
COc1ccccc1[C@H]1[C@@H]2C(=O)N(c3ccc(C(=O)O)cc3)C(=O)[C@@H]2ON1c1ccc(C)cc1 (relative stereo) | 20.2
COc1cccc([C@H]2[C@@H]3C(=O)N(c4ccc(C(=O)O)cc4)C(=O)[C@@H]3ON2c2ccc(C)cc2)c1 (relative stereo) | 19.9
COc1ccc([C@H]2[C@@H]3C(=O)N(c4ccc(C(=O)O)cc4)C(=O)[C@@H]3ON2c2ccc(C)cc2)cc1 (relative stereo) | 18
Cc1ccc(N2O[C@H]3C(=O)N(c4ccc(C(=O)O)cc4)C(=O)[C@H]3[C@@H]2c2ccccc2[N+](=O)[O-])cc1 (relative stereo) | 25.2

Biological target: Butyrylcholinesterase (Rattus norvegicus, UniProt Q9JKC1)
Sequence (Q9JKC1 whole entry): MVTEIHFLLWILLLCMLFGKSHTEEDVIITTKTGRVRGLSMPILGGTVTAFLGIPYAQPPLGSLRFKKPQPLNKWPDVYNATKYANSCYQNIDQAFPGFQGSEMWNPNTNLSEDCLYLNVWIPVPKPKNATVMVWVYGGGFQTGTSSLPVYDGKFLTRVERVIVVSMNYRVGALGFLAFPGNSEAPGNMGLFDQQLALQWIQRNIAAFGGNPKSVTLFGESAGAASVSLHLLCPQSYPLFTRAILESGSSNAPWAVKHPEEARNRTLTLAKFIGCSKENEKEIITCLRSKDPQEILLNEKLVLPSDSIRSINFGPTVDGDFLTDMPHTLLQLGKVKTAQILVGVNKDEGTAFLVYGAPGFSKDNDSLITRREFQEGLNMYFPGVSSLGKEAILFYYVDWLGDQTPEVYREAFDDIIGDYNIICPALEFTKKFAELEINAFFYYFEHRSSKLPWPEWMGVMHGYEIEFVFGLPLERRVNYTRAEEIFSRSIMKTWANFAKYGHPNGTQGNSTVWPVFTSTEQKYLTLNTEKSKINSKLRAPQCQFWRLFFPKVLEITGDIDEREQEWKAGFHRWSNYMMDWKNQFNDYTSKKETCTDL
Assay: Inhibition of BuChE activity in rat plasma using […] as substrate by Ellman's method
Type: cell-free
Conditions: not given

SMILES | IC50 [nM]
COc1ccc([C@H]2[C@H]3C(=O)N(c4ccc(C(=O)O)cc4)C(=O)[C@H]3ON2c2ccc(C)cc2)cc1 (relative stereo) | 15300

System: Mus musculus
Assay: Antiamnesic activity in mouse assessed as inhibition of scopolamine-induced escape latency time at 2 mg/kg, ip measured on day 1 by Morris water maze test (reference value: 89.7 +/- 3.8 secs)
Type: functional
Conditions: route intraperitoneal

SMILES | Time [s]
COc1ccc([C@H]2[C@H]3C(=O)N(c4ccc(C(=O)O)cc4)C(=O)[C@H]3ON2c2ccc(C)cc2)cc1 (relative stereo) | 83.7

System: Mus musculus
Assay: Antiamnesic activity in mouse assessed as inhibition of scopolamine-induced escape latency time at 5 mg/kg, ip measured on day 1 by Morris water maze test (reference value: 89.7 +/- 3.8 secs)
Type: functional
Conditions: route intraperitoneal

SMILES | Time [s]
COc1ccc([C@H]2[C@H]3C(=O)N(c4ccc(C(=O)O)cc4)C(=O)[C@H]3ON2c2ccc(C)cc2)cc1 (relative stereo) | 85.2

System: Mus musculus
Assay: Antiamnesic activity in mouse assessed as inhibition of scopolamine-induced escape latency time at 10 mg/kg, ip measured on day 1 by Morris water maze test (reference value: 89.7 +/- 3.8 secs)
Type: functional
Conditions: route intraperitoneal

SMILES | Time [s]
COc1ccc([C@H]2[C@H]3C(=O)N(c4ccc(C(=O)O)cc4)C(=O)[C@H]3ON2c2ccc(C)cc2)cc1 (relative stereo) | 81.2

System: Mus musculus
Assay: Antiamnesic activity in mouse assessed as inhibition of scopolamine-induced escape latency time at 2 mg/kg, ip measured on day 4 by Morris water maze test (reference value: 78.7 +/- 5.7 secs)
Type: functional
Conditions: route intraperitoneal

SMILES | Time [s]
COc1ccc([C@H]2[C@H]3C(=O)N(c4ccc(C(=O)O)cc4)C(=O)[C@H]3ON2c2ccc(C)cc2)cc1 (relative stereo) | 74.8

System: Mus musculus
Assay: Antiamnesic activity in mouse assessed as inhibition of scopolamine-induced escape latency time at 5 mg/kg, ip measured on day 4 by Morris water maze test (reference value: 78.7 +/- 5.7 secs)
Type: functional
Conditions: route intraperitoneal

SMILES | Time [s]
COc1ccc([C@H]2[C@H]3C(=O)N(c4ccc(C(=O)O)cc4)C(=O)[C@H]3ON2c2ccc(C)cc2)cc1 (relative stereo) | 69.5

System: Mus musculus
Assay: Antiamnesic activity in mouse assessed as inhibition of scopolamine-induced escape latency time at 10 mg/kg, ip measured on day 4 by Morris water maze test (reference value: 78.7 +/- 5.7 secs)
Type: functional
Conditions: route intraperitoneal

SMILES | Time [s]
COc1ccc([C@H]2[C@H]3C(=O)N(c4ccc(C(=O)O)cc4)C(=O)[C@H]3ON2c2ccc(C)cc2)cc1 (relative stereo) | 49.1

System: Mus musculus
Assay: Antiamnesic activity in scopolamine-induced amnesia mouse model assessed as increase in time spent in target quadrant at 5 mg/kg, ip measured on day 5 by Morris water maze test
Type: functional, organism-based
Design: dose 5 mg/kg
Conditions: not given

SMILES | Activity
COc1ccc([C@H]2[C@H]3C(=O)N(c4ccc(C(=O)O)cc4)C(=O)[C@H]3ON2c2ccc(C)cc2)cc1 (relative stereo) | Active

System: Mus musculus
Assay: Antiamnesic activity in scopolamine-induced amnesia mouse model assessed as increase in time spent in target quadrant at 10 mg/kg, ip measured on day 5 by Morris water maze test
Type: functional, organism-based
Design: dose 10 mg/kg
Conditions: not given

SMILES | Activity
COc1ccc([C@H]2[C@H]3C(=O)N(c4ccc(C(=O)O)cc4)C(=O)[C@H]3ON2c2ccc(C)cc2)cc1 (relative stereo) | Active

System: Mus musculus
Assay: Antiamnesic activity in scopolamine-induced amnesia mouse model assessed as increase in time spent in target quadrant at 25 mg/kg, ip measured on day 5 by Morris water maze test
Type: functional, organism-based
Design: dose 25 mg/kg
Conditions: not given

SMILES | Activity
COc1cc2c(cc1OC)C(=O)C(CC1CCN(Cc3ccccc3)CC1)C2 (centres undefined) | Active

— ChEMBL document CHEMBL2069196, “Synthesis and evaluation of novel 4-[(3H,3aH,6aH)-3-phenyl)-4,6-dioxo-2-phenyldihydro-2H-pyrrolo[3,4-d]isoxazol-5(3H,6H,6aH)-yl]benzoic acid derivatives as potent acetylcholinesterase inhibitors and anti-amnestic agents” (Bioorg Med Chem, 2012)
